Source: PMC4641920, “Structural Determinants for Substrate Binding and Catalysis in Triphosphate Tunnel Metalloenzymes” (The Journal of Biological Chemistry, 2015)

Key:
[1] = target: T1, mouse ThTPase (Mus musculus, UniProt Q8JZL3); test: X-ray crystal structure of product complex (soak); assay type: binding; settings: pH 9.0, 0.2 M MgCl2 in crystallization buffer
T1 construct: gene Thtpa; full-length, codon-optimized synthetic gene; pMH-HT, His6 tag cleaved by TEV as for AtTTM3; expressed in E. coli
T1 sequence (Q8JZL3 1-224): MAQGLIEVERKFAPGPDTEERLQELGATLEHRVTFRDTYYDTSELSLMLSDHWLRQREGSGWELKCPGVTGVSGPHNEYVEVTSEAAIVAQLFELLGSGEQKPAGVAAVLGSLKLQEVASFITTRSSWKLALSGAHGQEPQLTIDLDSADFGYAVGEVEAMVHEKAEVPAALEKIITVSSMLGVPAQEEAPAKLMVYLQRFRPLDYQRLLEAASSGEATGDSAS

[2] = target: T2, ygiF (Escherichia coli, UniProt P30871); test: X-ray crystal structure of complex (soak); assay type: binding; settings: MgCl2 (5a60) or MnCl2 (5a61), 5 mM; tunnel active site
T2 construct: full-length, tunnel domain plus CHAD domain; pMH-HT, His6 tag cleaved by TEV as for AtTTM3; expressed in E. coli

[3] = target: T3, Vtc4p (Saccharomyces cerevisiae, UniProt P47075); test: polyP synthesis, urea PAGE with DAPI stain; assay type: biochemical; settings: 10 mM ATP, 1 mM MnCl2, pH 8.3, room temperature overnight
T3 construct: gene VTC4; probably the cytoplasmic tunnel domain of earlier work

[4] = target: T1, mouse ThTPase; test: X-ray crystal structure of complex (soak); assay type: binding; settings: 10 mM MgCl2; low pH where activity is minimal (text: pH 6; methods: buffer pH 6.8); tunnel active site

T2 sequence (P30871 whole entry, the tested form may be a part): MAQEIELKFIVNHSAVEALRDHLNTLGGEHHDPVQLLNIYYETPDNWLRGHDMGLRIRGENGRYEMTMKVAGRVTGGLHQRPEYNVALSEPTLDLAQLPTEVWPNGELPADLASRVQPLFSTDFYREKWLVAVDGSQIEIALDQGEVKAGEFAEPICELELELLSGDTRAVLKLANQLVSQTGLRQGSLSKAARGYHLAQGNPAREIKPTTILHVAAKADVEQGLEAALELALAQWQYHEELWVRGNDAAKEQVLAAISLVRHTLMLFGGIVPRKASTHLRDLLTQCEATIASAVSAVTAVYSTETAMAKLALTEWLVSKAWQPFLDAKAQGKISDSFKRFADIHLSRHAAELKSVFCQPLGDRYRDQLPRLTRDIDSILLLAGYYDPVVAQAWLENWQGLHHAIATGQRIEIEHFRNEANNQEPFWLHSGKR
T3 sequence (P47075 189-480 limits assumed): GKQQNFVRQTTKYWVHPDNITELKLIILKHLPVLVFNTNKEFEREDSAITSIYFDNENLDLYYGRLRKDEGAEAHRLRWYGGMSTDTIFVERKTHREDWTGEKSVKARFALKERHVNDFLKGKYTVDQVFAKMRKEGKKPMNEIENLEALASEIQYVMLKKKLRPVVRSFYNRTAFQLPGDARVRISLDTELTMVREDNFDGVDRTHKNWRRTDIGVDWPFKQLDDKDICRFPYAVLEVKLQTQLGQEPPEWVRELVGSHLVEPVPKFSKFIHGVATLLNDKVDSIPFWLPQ

Cc1ncc(C[n+]2csc(CCOP(=O)(O)OP(=O)(O)O)c2C)c(N)n1 [ThDP]
X-ray crystal structure of product complex (soak) ([1]; tunnel active site, Pi also bound): with a ThDP molecule and an orthophosphate located in the tunnel center

O=P(O)(O)OP(=O)(O)OP(=O)(O)O [tripolyphosphate]
X-ray crystal structure of complex (soak) [2]: solved structures of ygiF in complex with PPPi and in the presence of either MgCl2

Nc1ncnc2c1ncn2[C@@H]1O[C@H](COP(=O)(O)OP(=O)(O)OP(=O)(O)O)[C@@H](O)[C@H]1O [ATP]
polyP synthesis, urea PAGE with DAPI stain [3]: only Vtc4p can generate inorganic polyphosphate from ATP

Cc1ncc(C[n+]2csc(CCOP(=O)(O)OP(=O)(O)OP(=O)(O)O)c2C)c(N)n1 [thiamine triphosphate]
X-ray crystal structure of complex (soak) [4]: we found an intact ThTP molecule bound in the tunnel center of ThTPase

O=P(O)(O)O [orthophosphate]
X-ray crystal structure of product complex (soak) ([1]; bound by Arg-125 near metal site 2, with ThDP): with a ThDP molecule and an orthophosphate located in the tunnel center
